Assay results taken from patent US11124526B2, “Crystalline beta-lactamase inhibitor” (Allecra Therapeutics SAS, priority 2013, dated 2021).
In brackets after ≈: the same amount, converted by molar mass.

Columns and labels:
Format in all cases: physicochemical
[1] = Inventors' findings on hygroscopicity and stability of amorphous versus crystalline compound of formula (I)
[2] = Solubility of amorphous compound of formula (I) in selected solvents (slurry stirred 4 hours, mother liquor by HPLC); details: thermodynamic from solid
Protocol: Solubility values of solvents were calculated with respect to the HPLC response factor, set out in FIG. 12.
HPLC response factor was calculated for the amorphous compound of formula (I) using samples dissolved in acetonitrile/water 9/1 with the following method: • Column: ZORBAX Eclipse XDB-C18 (150×4.6 mm, 5 μm) • Temperature: 25° C. • Mobile phase: A: 0.05M Sodium ortophosphate/water, B: Acetonitrile • Gradient: from 5% of B to 95% of B in 10 min • Detector: UV λ=220 nm
Slurries of the amorphous compound of formula (I) in the selected solvents were prepared and stirred at 20° C. and 40° C. for 4 hours. • Samples of each slurry were filtered and the mother liquors injected in HPLC. • The solid residual were isolated and analyzed by XRPD. • The results are summarized in the following Table 4.

[3] = Dynamic Vapor Sorption (DVS) of Form F; details: 25° C.
Protocol: Kinetic moisture sorption measurements were performed at 25° C. and at relative humidity (RH % target as follows: • From 40% RH to 90% RH • Form 90% RH to 0% RH • From 0% RH to 90% RH • From 90% RH to 0% RH The kinetic moisture sorption measurement was performed at 25° C. and in a RH % range described in the following: • From 40% RH to 90% RH • Form 90% RH to 0% RH • From 0% RH to 90% RH • From 90% RH to 0% RH The experiment is performed on 10-15 mg of sample and the equilibrium criterion is set as dm/dt<0.002% w/w in 10 min with a maximum step time of 240 min.

[4] = Hygroscopicity of Form F (% weight change at 25° C. and 80% RH)
Protocol: The hygroscopicity was calculated using the following equation: % Weight Change=[(W2−W1)W1]*100 wherein, • W1 is weight of sample at the start of the experiment; and • W2 is weight of sample at 25° C. and 80% RH in the first absorption cycle.

[5] = Stability tests of Form F stored at controlled temperature and RH
[6] = Solubility assessment of Form C in saline physiological solution (HPLC)
Protocol: The Form C solubility was calculated by HPLC employing a dedicated walk-up method. The product obtained by the scaled up procedure described in Example 13 was used to perform the experiments.
1.9 g of the product was suspended in 1 ml of commercial physiologic solution (0.9% of NaCl) at ambient temperature (˜20 ° C.). The suspension resulted slightly opaque and quite viscous after 30 min. After this time the suspension was sampled and the sample injected in HPLC to determine its concentration. After 2 hrs stirring the solid residue was completely dissolved. The addition of more solid was not performed to avoid the gelatinisation of the viscous solution. A sample was taken and injected in HPLC to determine its concentration. The solution was stirred other 3 hrs and sampled again. The 5 hrs sample was also injected in HPLC to determine its concentration.

[7] = 25° C. and 80% RH, first absorption cycle

C[n+]1ccn(C[C@@]2(C)[C@H](C(=O)[O-])N3C(=O)C[C@H]3S2(=O)=O)n1 [amorphous compound of formula (I), (2S,3S,5R)-3-methyl-3-((3-methyl-1H-1,2,3-triazol-3-ium-1-yl)methyl)-7-oxo-4-thia-1-azabicyclo[3.2.0]heptane-2-carboxylate 4,4-dioxide]
Hygroscopicity (statement in words) [1]: hygroscopic
Stability when stored ([1]; stored at room temperature): limited stability
solubility at 4 h ([2]; organic solvent or mixture, 1-butanol, 20° C.): 97 mg/mL
solubility at 4 h ([2]; organic solvent or mixture, 1-butanol, 40° C.): 167 mg/mL
solubility at 4 h ([2]; organic solvent or mixture, 1-propanol, 20° C.): 295 mg/mL
solubility at 4 h ([2]; organic solvent or mixture, 1-propanol, 40° C.): > 400 mg/mL
solubility at 4 h ([2]; organic solvent or mixture, 2-propanol, 20° C.): 23 mg/mL
solubility at 4 h ([2]; organic solvent or mixture, 2-propanol, 40° C.): 28 mg/mL
solubility at 4 h ([2]; organic solvent or mixture, Acetonitrile, 20° C.): 6 mg/mL
solubility at 4 h ([2]; organic solvent or mixture, Dimethylsulfoxide, 20° C.): > 400 mg/mL
solubility at 4 h ([2]; organic solvent or mixture, Dimethylsulfoxide, 40° C.): > 400 mg/mL
solubility at 4 h ([2]; organic solvent or mixture, Ethanol, 20° C.): 420 mg/mL
solubility at 4 h ([2]; organic solvent or mixture, Ethanol, 40° C.): > 420 mg/mL
solubility at 4 h ([2]; organic solvent or mixture, Ethanol/acetone 20%, 20° C.): > 300 mg/mL
solubility at 4 h ([2]; organic solvent or mixture, Ethanol/acetone 40%, 20° C.): > 300 mg/mL
solubility at 4 h ([2]; organic solvent or mixture, Ethanol/methyl tert-butyl ether 20%, 20° C.): 52 mg/mL
solubility at 4 h ([2]; organic solvent or mixture, Ethanol/methyl tert-butyl ether 40%, 20° C.): 16 mg/mL
solubility at 4 h ([2]; organic solvent or mixture, Methanol, 20° C.): > 400 mg/mL
solubility at 4 h ([2]; organic solvent or mixture, Methanol, 40° C.): > 400 mg/mL
solubility at 4 h ([2]; Water, 20° C.): > 400 mg/mL
solubility at 4 h ([2]; Water, 40° C.): > 400 mg/mL

C[n+]1ccn(C[C@@]2(C)[C@H](C(=O)[O-])N3C(=O)C[C@H]3S2(=O)=O)n1 [Form F, (2S,3S,5R)-3-methyl-3-((3-methyl-1H-1,2,3-triazol-3-ium-1-yl)methyl)-7-oxo-4-thia-1-azabicyclo[3.2.0]heptane-2-carboxylate 4,4-dioxide]
Relative humidity up to which the form is stable (DVS) [3]: approximately 50 % RH
Weight increase (DVS) ([3]; at 90% RH): greater than 50 % w/w
Water sorption behaviour after the weight increase at 90% RH (DVS) ([3]; following cycles): releases and takes water reversibly
Hygroscopicity classification [4, 7]: very hygroscopic
Mass increase (% Weight Change) [4, 7]: greater than 15%
Appearance at high humidity ([4]; high humidity): becomes a viscous liquid
Stability on storage (appearance) ([5]; after a day at 25° C. and 60% RH): becomes a viscous liquid
Stability on storage (appearance) ([5]; after a day at 60° C. and 75% RH): becomes a viscous liquid

C[n+]1ccn(C[C@@]2(C)[C@H](C(=O)[O-])N3C(=O)C[C@H]3S2(=O)=O)n1 [Form C, (2S,3S,5R)-3-methyl-3-((3-methyl-1H-1,2,3-triazol-3-ium-1-yl)methyl)-7-oxo-4-thia-1-azabicyclo[3.2.0]heptane-2-carboxylate 4,4-dioxide]
Formation of impurities in physiologic solution (HPLC traces) ([6]; 0.9% NaCl, ambient temperature, up to 5 hrs): did not show the formation of significant impurities
solubility at 30 min ([6]; physiologic solution (0.9% NaCl), saline or isotonic, thermodynamic from solid, physiologic solution (0.9% of NaCl), ~20 ° C., timepoint 30 mins, read-out: Solubility (mg/ml) at ambient temperature): 772 mg/mL (≈ 2460 mM)
solubility at 2 h ([6]; physiologic solution (0.9% NaCl), saline or isotonic, thermodynamic from solid, physiologic solution (0.9% of NaCl), ~20 ° C., timepoint 2 hours, solid completely dissolved, read-out: Solubility (mg/ml) at ambient temperature): > 883 mg/mL
solubility at 5 h ([6]; physiologic solution (0.9% NaCl), saline or isotonic, thermodynamic from solid, physiologic solution (0.9% of NaCl), ~20 ° C., timepoint 5 hours, read-out: Solubility (mg/ml) at ambient temperature): > 812 mg/mL
